Experimental data reported in patent US20200224168A1, “COMPOSITIONS AND METHODS FOR ENHANCING MATURATION STATES OF HEALTHY AND DISEASED CARDIOMYOCYTES” (University of Washington, priority 2017, published 2020).

Tests used:
DMD mutant hPSC-CMs = test: Primary drug screen: intracellular ATP (CellTiter Glo) viability after hypotonic stress; conditions: 18 hours compound incubation, then 12.5% normal osmolarity for 30 minutes, relative to DMSO control wells, concentration not stated (10^-8 to 10^-5 M tested)
[1] = system: mature DMD mutant hPSC-CMs; test: nanoMEA beat rate variability (Mean ΔBI), mature diseased cells; type: cell-based, human
Experimental: Cells were exposed to various concentrations of nitrendipine or sildenafil citrate for seven days and measured their beat rate variability. […] Briefly, the ion permeable polymer Nafion (Sigma-Aldrich) was patterned onto commercial multi-well MEA plates (Axion Biosystems) via solvent-mediated capillary force lithography. Prior to cell seeding, control flat or nanoMEA Nafion surfaces were sterilized with UV-C light and then incubated for 6 hours at 37° C. with 5 μg/cm^2 human fibronectin (Life Technologies). hPSC-CMs were plated in droplet fashion at 25,000 cells per well of the MEA plate. Electrophysiological analysis of spontaneously beating cardiomyocytes was collected for 2 minutes using the AxIS software (Axion Biosystems). After raw data collection, the signal was filtered using a Butterworth band-pass filter and a 90 μV spike detection threshold. Field potential duration was automatically determined using a polynomial fit T-wave detected algorithm.

hPSC-CMs = test: Immunofluorescent imaging, morphological and sarcomere analysis; type: cell-based, human; conditions: for cell area compared to Control: single maturation cue on flat surface, 3 weeks
Source text: For these studies, and all subsequent functional assays, the full ComboMat platform (Let7i+NP+T3) was compared to a viral vector Control (EV+Flat+No T3) and each maturation cue in isolation: NP (EV+NP+No T3), T3 (EV+Flat+T3), and Let7i (Let7i+Flat+No T3). […] Sarcomeres developed with a higher degree of directionality and order on NPs, resulting in more sarcomeres in register with one another (FIG. 2B).
[…] Samples were then permeabilized with 0.1% Triton X-100 (Sigma-Aldrich) in PBS and blocked with 5% goat serum. Cells were then incubated with mouse anti-α-actinin monoclonal antibody (1:1000, Sigma-Aldrich) in 1% goat serum overnight at 4° C. After washing with PBS, the samples were stained with Alexa-594 conjugated goat-anti-mouse secondary antibody (1:200, Invitrogen) as well as Alexafluo 488 labeled Phalloidin (1:200, Invitrogen). Nuclei counterstaining was performed with Vectashield containing DAPI (Vector Labs). A Nikon AIR confocal microscope with a Nikon CFI Plan Apo VC 60× water immersion objective was used to capture detailed immunofluorescent images for sarcomere analysis while a 20× air objective was used to obtain low-powered images of cells for measuring cell binucleation percentage. Cells from both objective powers were used to measure cell size. For morphological and sarcomere analysis, hPSC-CMs were plated at 10,000 cells/cm^2. […]
Immunofluorescent images were quantified for sarcomere alignment, pattern strength, and sarcomere length using a scanning gradient/Fourier transform script in MATLAB (Mathworks). Each image was broken into several small segments which were individually analyzed. Using a directional derivative, the image gradient for each segment was calculated to determine the local alignment of sarcomeres. The pattern strength was then determined by calculating the maximum peaks of one-dimensional Fourier transforms in the direction of the gradient. The lengths of sarcomeres were calculated by measuring the intensity profiles of the sarcomeres along this same gradient direction. […]

[2] = system: cells exposed to Control conditions or Normal hPSC-CMs exposed to the ComboMat platform; test: nanoMEA beat rate variability, immature or healthy cells; type: cell-based, human; conditions: seven days
Experimental: Cells were exposed to various concentrations of nitrendipine or sildenafil citrate for seven days and measured their beat rate variability. […] Briefly, the ion permeable polymer Nafion (Sigma-Aldrich) was patterned onto commercial multi-well MEA plates (Axion Biosystems) via solvent-mediated capillary force lithography. Prior to cell seeding, control flat or nanoMEA Nafion surfaces were sterilized with UV-C light and then incubated for 6 hours at 37° C. with 5 μg/cm^2 human fibronectin (Life Technologies). hPSC-CMs were plated in droplet fashion at 25,000 cells per well of the MEA plate. Electrophysiological analysis of spontaneously beating cardiomyocytes was collected for 2 minutes using the AxIS software (Axion Biosystems). After raw data collection, the signal was filtered using a Butterworth band-pass filter and a 90 μV spike detection threshold. Field potential duration was automatically determined using a polynomial fit T-wave detected algorithm. Beat interval analysis on 30 consecutive beats was performed as previously published^26 (see Table 3).

DMD patients = conditions: cited from earlier work
mdx mouse = conditions: cited from earlier work

CN1CCc2c(c3ccccc3n2Cc2ccccc2)C1.CN1CCc2c(c3ccccc3n2Cc2ccccc2)C1.O=S(=O)(O)c1cccc2c(S(=O)(=O)O)cccc12 [MEBHYDROLIN NAPHTHALENESULFONATE]
Average of % Viability (DMD mutant hPSC-CMs): 172.81 ± 39.86%

CCOC(=O)C1=C(C)NC(C)=C(C(=O)OC)C1c1cccc([N+](=O)[O-])c1 (centres unmarked) [NITRENDIPINE]
effect on spontaneous beating ([1]; doses higher than 1 μM, seven days): ceased spontaneous beating
time for benefits to wash out after removal from cell culture medium ([1]; mature DMD mutant hPSC-CMs, Mean ΔBI after washout): ≤ 48 h
beat rate variability level restored ([1]; mature DMD mutant hPSC-CMs, doses up to 1 μM, seven days): < 50 ms

N[C@@H](Cc1cc(I)c(Oc2ccc(O)c(I)c2)c(I)c1)C(=O)O [T3, Triiodothyronine]
impact of long-term exposure on sarcomere development and beat rate variability (hPSC-CMs; long-term T3 exposure (7, 14, 21 days), preliminary results): negative impact
cell area compared to Control (hPSC-CMs): significantly larger

CCCc1nn(C)c2c(=O)[nH]c(-c3cc(S(=O)(=O)N4CCN(C)CC4)ccc3OCC)nc12 [sildenafil]
impact on beat rate variability [2]: Neither nitrendipine nor sildenafil had a significant impact
cardiac symptoms in DMD patients (clinical trial, terminated early) (DMD patients): exacerbated cardiac symptoms
Mean ΔBI (beat rate variability) compared to DMSO carrier control ([1]; mature (ComboMat) DMD mutant hPSC-CMs, seven days exposure, various concentrations): no effect
cardiac dysfunction in the mdx mouse (mdx mouse): showed promise in alleviating cardiac dysfunction

Let7i: Let-7i miRNA (UGAGGUAGUAGUUUGUGCU duplex) overexpressed from a lentiviral vector (listed as Homo sapiens)
cell area compared to Control (hPSC-CMs): significantly larger
